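Grown in 96-well plates, cells were treated for 48 hours with each compound at five concentrations. Insufficient inhibition: endpoint recorded as highest concentration tested. GI50: concentration for 50% inhibition of growth.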 The source made the active and inactive calls. Cut-off read from the data, not from the text of the source: active = GI50 up to about 1.1 µM and inactive = higher.
What was measured:
Assay in all cases: NCI anticancer screen, dose series, 48 h
[1] = system: 786-0
[2] = system: HL-60
[3] = system: IGROV-1
[4] = system: MDA-MB-231
[5] = system: MDA-MB-435
[6] = system: MDA-N
[7] = system: Malme-3M
[8] = system: NCI-H226
[9] = system: NCI-H460
[10] = system: NCI-H522
[11] = system: NCI/ADR-RES
[12] = system: OVCAR-4
[13] = system: OVCAR-8
[14] = system: RPMI-8226
[15] = system: SK-OV-3
[16] = system: SN12C
[17] = system: SNB-19
[18] = system: SR
[19] = system: U-251
[20] = system: UACC-62

Measured: GI50

CN(C)Cc1cc(/N=N/c2ccc(Cl)cc2)ccc1O
inactive: [1] 12.8 µM | [2] 13.5 µM | [3] 15.8 µM | [4] 16.1 µM | [5] 16.7 µM | [6] 19.5 µM | [7] 14 µM | [8] 14.6 µM | [9] 13.8 µM | [10] 13.5 µM | [11] 17.7 µM | [12] 16.5 µM | [13] 16.9 µM | [14] > 10 µM | [15] 18.7 µM | [16] 16.9 µM | [17] 17.3 µM | [18] 16.4 µM | [19] 17.4 µM | [20] 16 µM

CCOc1cc(NC(C)=O)ccc1C(=O)NNC(=O)c1ccccc1OC(C)=O
active: [18] 1.05 µM
inactive: [1] 4.53 µM | [2] 4.28 µM | [3] 3.03 µM | [4] 4.42 µM | [5] 15 µM | [6] 12.5 µM | [7] 21.7 µM | [8] 5.19 µM | [9] 4.04 µM | [10] 5.83 µM | [11] 17.7 µM | [12] 4.32 µM | [13] 6.3 µM | [14] 3 µM | [15] 11.8 µM | [16] 5.24 µM | [17] 21.9 µM | [19] 4.69 µM | [20] 8.36 µM

N#Cc1ncn(CCO)c1N
inactive: [1] > 100 µM | [2] > 100 µM | [3] > 100 µM | [4] > 100 µM | [5] > 100 µM | [6] > 100 µM | [7] > 100 µM | [8] > 100 µM | [9] > 100 µM | [10] > 100 µM | [11] > 100 µM | [12] > 100 µM | [13] > 100 µM | [14] > 100 µM | [15] > 100 µM | [16] > 100 µM | [17] > 100 µM | [18] > 100 µM | [19] > 100 µM | [20] > 100 µM

COc1cc2c(c(OC)c1OC)-c1ccc(OC)c(=O)cc1C(NC(=O)CCCCCNc1ccc(N=[N+]=[N-])cc1[N+](=O)[O-])CC2 (stereo not given)
active: [1] < 0.01 µM | [2] < 0.01 µM | [3] < 0.01 µM | [4] < 0.01 µM | [5] < 0.01 µM | [6] < 0.01 µM | [7] < 0.01 µM | [8] < 0.01 µM | [9] < 0.01 µM | [10] < 0.01 µM | [11] 0.422 µM | [13] < 0.01 µM | [14] < 0.01 µM | [15] < 0.01 µM | [16] < 0.01 µM | [17] < 0.01 µM | [18] < 0.01 µM | [19] < 0.01 µM | [20] < 0.01 µM
inactive: [12] 1.56 µM

Nc1cccc(C2CCCc3c2[nH]c2ccccc32)c1 (stereo not given)
inactive: [1] 18.2 µM | [2] 19.5 µM | [3] 17.3 µM | [4] 15.8 µM | [5] 17.3 µM | [6] 17.5 µM | [7] 18.1 µM | [8] 25.7 µM | [9] 19.5 µM | [10] 15.8 µM | [11] 17.7 µM | [12] 25.5 µM | [13] 17.7 µM | [14] 19.1 µM | [15] 23.9 µM | [16] 17 µM | [17] 12 µM | [18] 9.08 µM | [19] 14.6 µM | [20] 15.6 µM

Cc1ccc(C(=O)N/N=C(\N=N\c2cccc(Cl)c2)c2ccc(N(CCC#N)CCC#N)cc2C)cc1
inactive: [1] 82 µM | [2] 56.9 µM | [3] > 100 µM | [4] > 100 µM | [5] > 100 µM | [6] > 100 µM | [7] > 100 µM | [8] > 100 µM | [9] > 100 µM | [10] > 100 µM | [11] > 100 µM | [12] > 100 µM | [13] 79.4 µM | [14] 91.8 µM | [15] > 100 µM | [16] > 100 µM | [17] > 100 µM | [18] > 100 µM | [19] > 100 µM | [20] > 100 µM

N#Cc1c(N)c2c(c(-c3ccccc3)c1-c1ccccc1)C(=O)N(N)C2=O
inactive: [1] 98.2 µM | [2] 44 µM | [3] 60 µM | [4] > 100 µM | [5] > 100 µM | [6] > 100 µM | [7] > 100 µM | [8] > 100 µM | [9] > 100 µM | [10] 38.6 µM | [11] 56 µM | [12] > 100 µM | [13] > 100 µM | [14] 32.7 µM | [15] > 100 µM | [16] > 100 µM | [17] > 100 µM | [18] > 100 µM | [19] > 100 µM | [20] > 100 µM

O=C(COc1ccc(OCC(=O)N2C(=O)CN(c3ccccc3)C2=S)cc1)N1C(=O)CN(c2ccccc2)C1=S
inactive: [1] > 57 µM | [2] > 100 µM | [3] > 25 µM | [4] > 50.1 µM | [5] > 55.3 µM | [6] > 63.1 µM | [7] > 25 µM | [8] > 100 µM | [9] > 57.7 µM | [10] > 61.2 µM | [11] > 55.7 µM | [12] 31.5 µM | [13] > 55.2 µM | [14] > 100 µM | [15] > 54.3 µM | [16] > 59.2 µM | [17] > 48.4 µM | [18] > 25 µM | [19] > 51.6 µM | [20] > 56.1 µM

COC(=O)/C=C\C(C#N)(C#N)/N=C/c1ccccc1
active: [10] 0.471 µM | [14] 0.573 µM | [18] 0.897 µM
inactive: [1] 1.63 µM | [2] 2.25 µM | [3] 12.9 µM | [4] 15.6 µM | [5] 2.33 µM | [6] 4.44 µM | [7] 2.21 µM | [8] 9.55 µM | [9] 18.7 µM | [11] 2.88 µM | [12] 4.22 µM | [13] 1.91 µM | [15] 18.3 µM | [16] 11.1 µM | [17] 23.9 µM | [19] 17.7 µM | [20] 14.5 µM

O=C(O)CCCc1ccc(N(CCCl)CCCl)cc1 [CHLORAMBUCIL]
inactive: [1] 30.9 µM | [2] 8.22 µM | [3] 115 µM | [4] 156 µM | [5] 126 µM | [6] 117 µM | [7] 70.3 µM | [8] 95.7 µM | [9] 14.7 µM | [10] 28.4 µM | [11] 56.9 µM | [12] 136 µM | [13] 83.2 µM | [14] 76 µM | [15] 110 µM | [16] 35.5 µM | [17] 96.2 µM | [18] 5.98 µM | [19] 42.8 µM | [20] 20 µM
